According to PMC3668304, “Antidiabetic and antioxidant properties of Ficus deltoidea fruit extracts and fractions” (BMC Complementary and Alternative Medicine, 2013):
Values after ≈ are worked out from the molar mass of the structure shown.

Molecular target: T1, rat intestinal α-glucosidase (substrate pNPG)
T1 construct: gene Si; crude native enzyme from Sigma rat intestinal acetone powder
Assay: colorimetric p-nitrophenol release, […] nm
Type: biochemical
Details: substrate 4 mM pNPG (added stock); sodium phosphate buffer; 37°C, 30 min; crude enzyme

Structure (SMILES): C[C@H]1O[C@H](O[C@H]2[C@H](O)[C@@H](O)[C@@H](O[C@H]3[C@H](O)[C@@H](O)C(O)O[C@@H]3CO)O[C@@H]2CO)[C@H](O)[C@@H](O)[C@@H]1N[C@H]1C=C(CO)[C@@H](O)[C@H](O)[C@H]1O (stereo partly shown) [acarbose]
- IC50: 57.79 ± 0.66 µg/mL (≈ 89.5 µM)
